Experimental data as given in patent publication US20220362577A1, “METHODS FOR GUIDING DIRECT DELIVERY OF DRUGS AND/OR ENERGY TO LESIONS USING COMPUTATIONAL MODELING” (University of Vermont and State Agricultural College, priority 2019, published 2022).

Tests used:
[1] = test system: head, neck and gastric carcinomas; details: assumed the same for lung carcinomas; cited from earlier work
[2] = Cisplatin blood concentration versus time after EBUS-TBNI into a patient's lung tumor, fitted with Eq. 14; type: in vivo, human; details: fit of Eq. 14 to blood concentrations after five 8-mg intratumoral injections
Description: Combining Eqs. 2 and 12 gives:
The fitting was achieved by optimizing the values of the two free parameters (kf+ki) and Vf using a gradient-based algorithm to minimize the cost function: […]
Ultrasound guidance was used to attempt to distribute the 5 injections evenly throughout the tumor over an interval of 18 min.

[3] = test system: mitochondrial respiration; details: cisplatin-treated cells; cited from earlier work

N.N.[Cl][Pt][Cl] [cisplatin]
ki, rate constant of flow into the intracellular space [1]: 0.000105 s⁻¹
ki+kf, sum of rate constants out of the extracellular space [2]: 0.000251 s⁻¹
concentration above which stepwise decrements in mitochondrial respiration were seen [3]: above 5.0 uM
